Experimental data from patent publication US12522596B2, “Compounds as GLP-1R agonists” (Terns Pharmaceuticals, Inc., priority 2021, dated 2026).
Blank lines part the entries; values can stand above or below the compound they belong to.

How the values were obtained:
human GLP-1R receptor = molecular target: T1, human GLP-1R receptor (Homo sapiens, UniProt P43220); experiment: GLP-1R low expression cell assay (cAMP TR-FRET, CHO-K1_hGLP-1Rlow_clone10); type: cell-based; settings: CHO-K1_hGLP-1Rlow_clone10 cells
T1 construct: expressed in transfected cells
T1 sequence (P43220 24-463): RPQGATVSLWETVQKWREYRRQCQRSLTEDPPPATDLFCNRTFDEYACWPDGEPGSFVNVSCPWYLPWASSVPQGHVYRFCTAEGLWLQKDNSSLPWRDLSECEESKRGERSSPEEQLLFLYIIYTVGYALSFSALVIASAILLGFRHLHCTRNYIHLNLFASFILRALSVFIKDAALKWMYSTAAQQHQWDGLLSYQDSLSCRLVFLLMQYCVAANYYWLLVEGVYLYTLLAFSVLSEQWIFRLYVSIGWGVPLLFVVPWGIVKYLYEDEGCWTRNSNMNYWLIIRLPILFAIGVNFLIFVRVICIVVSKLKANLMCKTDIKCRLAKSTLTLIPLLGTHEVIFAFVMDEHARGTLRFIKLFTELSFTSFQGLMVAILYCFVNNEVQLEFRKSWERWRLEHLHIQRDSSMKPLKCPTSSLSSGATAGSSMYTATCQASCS
Procedure: Stable cell lines expressing high and low GLP-1R surface expression were generated in CHO-K1 cells transfected (Fugene 6) with a puromycin selectable DNA plasmid encoding human GLP-1R receptor (accession number: NM_002062.5) under control of an EF1A promoter. Transfected cells were seeded into 24-well plates (9,000 cells/well) containing complete medium and incubated in a humidified incubator at 37° C. with 5% carbon dioxide. After overnight incubation, medium was replaced with complete medium supplemented with puromycin (6 μg/mL) and refreshed every 2-3 days to select for stably transfected cells. Individual pools of selected cells were expanded prior to analysis for responsiveness to GLP-1 control peptide using a TR-FRET assay to detect cAMP (LANCE Ultra CAMP Assay, Perkin Elmer). Briefly, cells were collected in Versene solution, plated in 384-well plates (1,000 cells/well) and combined with serially diluted GLP-1R control peptide (10 nL) using an acoustic dispenser (ECHO). Plates were incubated for 30 minutes at 25° C. prior to the addition of EU-CAMP tracer (5 μL) and Ulight-anti-cAMP (5 μL) reagents to each well, followed by 15 minutes incubation at 25° C. TR-FRET signal was detected using an En Vision Multimode Plate Reader (excitation=320 nm; emission=615 and 655 nm). Dose-response curves were used to generate EC50 values as a measure of responsiveness to the GLP-1R control peptide. Selected cell lines were monitored for responsiveness over multiple passages to ensure stability. […] Briefly, GLP-1R expression was analyzed by flow cytometry using a fluorescein-labeled Exendin-4 peptide fluorescent probe (FLEX). Cells were harvested in Versene solution and washed 3-times with PBS+0.5% BSA before incubation with FLEX reagent (10 μM) for 2 hours at room temperature. After incubation, cells were washed 3-times in PBS+0.5% BSA before final resuspension in PBS prior to analysis by flow cytometry to measure FLEX mean fluorescence intensity (MFI) as a measure of GLP-1R expression on the cell surface.
For compound testing in the CHO-K1_hGLP-1Rlow_clone10 cell line, cells were seeded in 384-well plates (1,000 cells/well). Test compounds were serially diluted in DMSO (10-point, 3-fold dilution), added to wells using an ECHO dispenser (10 nL/well) and plates were centrifuged for 1 min and agitated for 2 min at room temperature prior to 30-minute incubation at 25° C. After incubation, Eu-CAMP (5 μL) and Ulight-anti-cAMP (5 μL) reagents were added to each well, followed by centrifugation for 1 minute, agitation for 2 minutes at room temperature, and final incubation of the plates at 25° C. for 15 minutes. Plates were read using an EnVision microplate reader (excitation=320 nm; emission=615 and 655 nm). Dose-response curves were generated from duplicate wells based on percent activation calculated relative to a control GLP-1 peptide agonist that was run in parallel. EC50 values were determined by fitting percent activation as a function of compound concentration using the Hill equation (XLfit).
Stable cell lines expressing high and low GLP-1R surface expression were generated in CHO-K1 cells transfected (Fugene 6) with a puromycin selectable DNA plasmid encoding human GLP-1R receptor (accession number: NM_002062.5) under control of an EF1A promoter. Transfected cells were seeded into 24-well plates (9,000 cells/well) containing complete medium and incubated in a humidified incubator at 37° C. with 5% carbon dioxide. After overnight incubation, medium was replaced with complete medium supplemented with puromycin (6 μg/mL) and refreshed every 2-3 days to select for stably transfected cells. Individual pools of selected cells were expanded prior to analysis for responsiveness to GLP-1 control peptide using a TR-FRET assay to detect cAMP (LANCE Ultra CAMP Assay, Perkin Elmer).

[1] = Rat pharmacokinetics, oral dosing; type: in vivo, Sprague-Dawley rats; settings: for AUC(0-t) / Cmax / half-life: male, Sprague-Dawley, rat plasma
Procedure: Oral dosing: Compounds were formulated at 0.3 mg/mL or 0.6 mg/mL in a solution comprising 5% polyethylene glycol 400 and 95% (12% (w/v) sulfobutyl-β-cyclodextrin in water) (v/v). Formulated compounds were administered to male, 7-11 week old Sprague-Dawley rats by oral gavage at a dose of 3 mg/kg.
Sample collection: Blood collections of about 0.2 mL per time point were performed from jugular vein or other suitable site of each animal, into pre-chilled commercial EDTA-K2 tubes and placed on wet ice until centrifugation. Blood samples were processed for plasma by centrifugation at approximately 4° C., 3,200 g for 10 min. Plasma was collected and transferred into pre-labeled 96 well plate or polypropylene tubes, quick frozen over dry ice and kept at −60° C. or lower until LC-MS/MS analysis.
Data analysis: Plasma concentration versus time data was plotted in graph and analyzed by non-compartmental approaches using the Phoenix WinNonlin 6.3 software program. Related PK parameters were calculated according to dosing route, e.g., CL, Vdss and C0 for intravenous administration, Cmax, Tmax or % F for extravascular administration, and T1/2, AUC(0-t), AUC(0-inf), MRT(0-t), MRT(0-inf) for all routes.

[2] = Metabolic stability in human hepatocytes; type: in vitro ADME; settings: cryopreserved hepatocytes; human hepatocytes, 1 μM
Procedure: (§1) Test compounds were incubated in rat and human hepatocytes and stability was assessed from the substrate […] approach. Test compounds were dissolved in dimethyl sulfoxide (DMSO) to create a 10 mM Stock, and then further diluted to create a 1000× Working Stock of 1 mM with DMSO in 96-well plates for test compounds and the positive control (midazolam). Vials containing cryopreserved hepatocytes were removed from the liquid nitrogen tank and immediately immersed in a 37° C. water bath. The vials were shaken gently until the contents had thawed and were then immediately emptied into 48 mL of pre-warmed HT Medium in a 50 mL conical tube. Cells remaining in the vial were resuspended with 1.0 mL of pre-warmed HT Medium and added to the conical tube. The tube was capped and then gently inverted several times to resuspend the hepatocytes. The cell suspension was centrifuged at 50×g at room temperature for 5 minutes and the supernatant discarded. The cell pellet was loosened by gently swirling the centrifuge tube and was re-suspended in 4 mL of warm Dulbecco's Modified Eagle medium (DMEM). Cell density was determined by a cell counter by Nexcelom, and DMEM medium was added to obtain a target density of 1×10^6 cells/mL. The assay was carried out in 96-well microtiter plates. Test Compounds were incubated at 1 μM with 1×10^6 cells/mL hepatocytes in DMEM for 0, 30, 60, 120 and 240 minutes. The incubation was carried out with gentle shaking at 37° C. under a humid atmosphere of 95% air/5% CO2. The volume of the incubation mixture was 37 μL with a final 0.1% DMSO. At each of the time points, the incubation was stopped by adding 150 μL quenching solution (100% acetonitrile, 0.1% formic acid containing bucetin as an internal standard for positive ESI mode). Subsequently, the mixtures were vortexed for 20 min and centrifuged at 4,000 RPM at 10° C. The supernatant (80 μL) was transferred to a clean 96-well plate and analyzed by LC-MS/MS. Midazolam at 1 μM with a final 0.1% DMSO was included as a positive control to verify assay performance. The percent parent remaining, intrinsic and predicted hepatic clearance and t1/2 were calculated. All samples were analyzed by LC-MS/MS using an AB Sciex API 4000 instrument, coupled to a Shimadzu LC-20AD LC Pump system. Separation was achieved using a Waters Atlantis T3 dC18 reverse phase HPLC column (20 mm×2.1 mm) at a flow rate of 0.5 mL/min. The mobile phase consisted of 0.1% formic acid in water (solvent A) and 0.1% formic acid in 100% acetonitrile (solvent B). Elution conditions are detailed below.
(§2) The ion optics of each test compound were optimized for their declustering potential (DP), […] (CE), collision-cell exit potential (CXP) and used in a selected ion monitoring experiment in the positive ion mode. The peak area ratio of each test compound to internal standard was then evaluated for stability. The extent of metabolism was calculated based on the disappearance of the test compound, compared to its initial concentration. The initial rates of clearance of the test compound were calculated using the linear regression plot of semi-log % remaining of the compound versus time. The elimination rate constant (k) of the linear regression plot was then used to determine t1/2 and the intrinsic clearance (CLint) using the following formula, where Chepatocyte (million cells/mL) is the cell density of the incubation:
(§3) The predicted hepatic clearance (CLhep) was calculated using the well stirred method with the following formula with CLint(in vivo) normalized based on liver weight: […]
(§4) The relevant physiological parameters of liver weight, blood flow, and hepatocellularity for various species are listed below: […]

[3] = Metabolic stability in rat hepatocytes; type: in vitro ADME; settings: cryopreserved hepatocytes, 1 μM
Procedure: as §1, §2, §3, §4

rat hepatocytes = experiment: Metabolic stability in rat hepatocytes; type: in vitro ADME
Procedure: as §1, §2, §3, §4

[4] = rat, plasma, po, 3 mg/kg, 3 mg/kg PO (0.3 mg/mL)

Structure (SMILES): N#Cc1cc(F)c2nc(COc3cccc(C4CCN(Cc5nc6ccc(C(=O)O)cc6n5Cc5scnc5Br)CC4)n3)sc2c1 [Compound 6]
EC50 (human GLP-1R receptor): 135 nM

Structure (SMILES): C=Cc1ncsc1Cn1c(CN2CCC(c3cccc(OCc4nc5c(F)cc(C#N)cc5s4)n3)CC2)nc2ccc(C(=O)O)cc21 [Compound 7]
EC50 (human GLP-1R receptor): 90.6 nM

Structure (SMILES): CCc1ncsc1Cn1c(CN2CCC(c3cccc(OCc4nc5c(F)cc(C#N)cc5s4)n3)CC2)nc2ccc(C(=O)O)cc21 [Compound 8]
EC50 (human GLP-1R receptor): 360 nM

Structure (SMILES): N#Cc1cc(F)c2nc(COc3cccc(C4CCN(Cc5nc6ccc(C(=O)O)cc6n5Cc5ccns5)CC4)n3)sc2c1 [Compound 9]
EC50 (human GLP-1R receptor): 16.6 nM

Structure (SMILES): COc1ccsc1Cn1c(CN2CCC(c3cccc(OCc4nc5c(F)cc(C#N)cc5s4)n3)CC2)nc2ccc(C(=O)O)cc21 [Compound 10]
EC50 (human GLP-1R receptor): 393 nM

Structure (SMILES): Cc1scnc1Cn1c(CN2CCC(c3cccc(OCc4nc5c(F)cc(C#N)cc5s4)n3)CC2)nc2ccc(C(=O)O)cc21 [Compound 11]
EC50 (human GLP-1R receptor): 292 nM

Structure (SMILES): Cc1ncsc1Cn1c(CN2CCC3(c4cccc(OCc5ccc(C#N)cc5F)n4)CC3C2)nc2ccc(C(=O)O)cc21 (stereo not shown) [Compound 12]
CLint scaled at 1 μM [2]: 26.8 ± 0.8 mL/min/kg
half-life at 1 μM [2]: 1.49 ± 0.0445 h
CLint scaled at 1 μM [3]: 91.7 ± 1.76 mL/min/kg
half-life at 1 μM [3]: 0.604 ± 0.0117 h
CLint relative to reference standard (rat hepatocytes): significantly increased
Half-life relative to reference (rat hepatocytes): significantly lower
EC50 (human GLP-1R receptor): 232 nM

Structure (SMILES): CCc1scnc1Cn1c(CN2CCC(c3cccc(OCc4nc5c(F)cc(C#N)cc5s4)n3)CC2)nc2ccc(C(=O)O)cc21 [Compound 13]
Half-life relative to reference (rat hepatocytes): significantly lower
EC50 (human GLP-1R receptor): 724 nM

Structure (SMILES): O=C(O)c1ccc2nc(CN3CC[C@@]4(c5cccc(OCc6ccc(Cl)cc6F)n5)C[C@H]4C3)n(Cc3cncs3)c2c1 [Compound 25]
Cmax ([1]; rat, plasma, po, 3 mg/kg, 3 mg/kg PO (0.6 mg/mL)): 412 ± 98.3 ng/mL
AUC(0-t) ([1]; 3 mg/kg PO (0.6 mg/mL)): 558 ± 100 ng·h/mL
half-life ([1]; 3 mg/kg PO (0.6 mg/mL)): 1.52 ± 0.21 h
PK properties relative to Reference Compound A ([1]; rat, dosed orally): similarly improved PK properties
EC50 (human GLP-1R receptor): 24.4 nM

Now from value to compound:

EC50 (human GLP-1R receptor): 50.1 nM
Structure (SMILES): N#Cc1ccc(COc2cccc(C3CCN(Cc4nc5ccc(C(=O)O)cc5n4Cc4nccs4)CC3)n2)c(F)c1 [Compound 1]

AUC(0-t) [1, 4]: 116 ± 23.2 ng·h/mL
Cmax [1, 4]: 79.8 ± 24.4 ng/mL
half-life [1, 4]: 1.1 ± 0.29 h
EC50 (human GLP-1R receptor): 44.2 nM
Structure (SMILES): N#Cc1cc(F)c2c(c1)CCN(c1cccc(C3CCN(Cc4nc5ccc(C(=O)O)cc5n4Cc4cncs4)CC3)n1)C2 [Compound 3]

EC50 (human GLP-1R receptor): 5.4 nM
Structure (SMILES): N#Cc1cc(F)c2nc(COc3cccc(C4CCN(Cc5nc6ccc(C(=O)O)cc6n5Cc5cncs5)CC4)n3)sc2c1 [Compound 5]

EC50 (human GLP-1R receptor): 25.8 nM
Structure (SMILES): N#Cc1ccc(COc2cccc(C3CCN(Cc4nc5ccc(C(=O)O)cc5n4Cc4scnc4Cl)CC3)n2)c(F)c1 [Compound 15]

EC50 (human GLP-1R receptor): 9.9 nM
Structure (SMILES): N#Cc1ccc(COc2ccnc([C@]34CCN(Cc5nc6ccc(C(=O)O)cc6n5Cc5cncs5)C[C@H]3C4)n2)c(F)c1 [Compound 18]

EC50 (human GLP-1R receptor): 161 nM
Structure (SMILES): N#Cc1ccc(COc2ccnc([C@@]34CCN(Cc5nc6ccc(C(=O)O)cc6n5Cc5cncs5)C[C@@H]3C4)n2)c(F)c1 [Compound 19]

EC50 (human GLP-1R receptor): 6.6 nM
Structure (SMILES): O=C(O)c1ccc2nc(CN3CC[C@]4(c5nccc(OCc6ccc(Cl)cc6F)n5)C[C@@H]4C3)n(Cc3cncs3)c2c1 [Compound 21]

EC50 (human GLP-1R receptor): 87.5 nM
Structure (SMILES): O=C(O)c1ccc2nc(CN3CC[C@@]4(c5nccc(OCc6ccc(Cl)cc6F)n5)C[C@H]4C3)n(Cc3cncs3)c2c1 [Compound 22]

CLint scaled at 1 μM [2]: 42.3 ± 1.59 mL/min/kg
half-life at 1 μM [2]: 1.11 ± 0.0523 h
CLint scaled at 1 μM [3]: 57.9 ± 1.25 mL/min/kg
half-life at 1 μM [3]: 0.957 ± 0.0205 h
CLint relative to reference standard (rat hepatocytes): significantly increased
Half-life relative to reference (rat hepatocytes): significantly lower
EC50 (human GLP-1R receptor): 3.3 nM
Structure (SMILES): O=C(O)c1ccc2nc(CN3CCC(c4nccc(OCc5ccc(Cl)cc5F)n4)CC3)n(Cc3cncs3)c2c1 [Compound 23]

EC50 (human GLP-1R receptor): 15.1 nM
Structure (SMILES): O=C(O)c1ccc2nc(CN3CC[C@]4(c5cccc(OCc6ccc(Cl)cc6F)n5)C[C@@H]4C3)n(Cc3cncs3)c2c1 [Compound 24]

CLint scaled at 1 μM [2]: 20.9 ± 0.98 mL/min/kg
half-life at 1 μM [2]: 1.92 ± 0.0905 h
CLint scaled at 1 μM [3]: 24.1 ± 0.83 mL/min/kg
half-life at 1 μM [3]: 2.3 ± 0.0792 h
CLint relative to reference standard (rat hepatocytes): significantly lower
Half-life relative to reference (rat hepatocytes): significantly higher
EC50 (human GLP-1R receptor): 4 nM
Structure (SMILES): [2H]C([2H])(Oc1cccc(C2CCN(Cc3nc4ccc(C(=O)O)cc4n3Cc3cncs3)CC2)n1)c1ccc(Cl)cc1F [Compound 26]
